# Laboratory results as given in ChEMBL document CHEMBL4321828, “Recent developments on (-)-colchicine derivatives: Synthesis and structure-activity relationship” (Eur J Med Chem, 2020).
# Legend:
# [1] = target: ATP-dependent translocase ABCB1 (Homo sapiens, UniProt P08183); test: Induction of P-gp in human LS180 cells assessed as […] in intracellular accumulation of Rh123 at 100 nM using Rho123 as substrate preincubated for 48 hrs followed by addition of Rh123 and measured after 90 mins by fluorescence based assay relative to control; format: cell-based; details: ls180, 48 h preincubation, then 1.5 h with Rh123, 0.1 µM
# Chain of ATP-dependent translocase ABCB1 (P08183 whole entry): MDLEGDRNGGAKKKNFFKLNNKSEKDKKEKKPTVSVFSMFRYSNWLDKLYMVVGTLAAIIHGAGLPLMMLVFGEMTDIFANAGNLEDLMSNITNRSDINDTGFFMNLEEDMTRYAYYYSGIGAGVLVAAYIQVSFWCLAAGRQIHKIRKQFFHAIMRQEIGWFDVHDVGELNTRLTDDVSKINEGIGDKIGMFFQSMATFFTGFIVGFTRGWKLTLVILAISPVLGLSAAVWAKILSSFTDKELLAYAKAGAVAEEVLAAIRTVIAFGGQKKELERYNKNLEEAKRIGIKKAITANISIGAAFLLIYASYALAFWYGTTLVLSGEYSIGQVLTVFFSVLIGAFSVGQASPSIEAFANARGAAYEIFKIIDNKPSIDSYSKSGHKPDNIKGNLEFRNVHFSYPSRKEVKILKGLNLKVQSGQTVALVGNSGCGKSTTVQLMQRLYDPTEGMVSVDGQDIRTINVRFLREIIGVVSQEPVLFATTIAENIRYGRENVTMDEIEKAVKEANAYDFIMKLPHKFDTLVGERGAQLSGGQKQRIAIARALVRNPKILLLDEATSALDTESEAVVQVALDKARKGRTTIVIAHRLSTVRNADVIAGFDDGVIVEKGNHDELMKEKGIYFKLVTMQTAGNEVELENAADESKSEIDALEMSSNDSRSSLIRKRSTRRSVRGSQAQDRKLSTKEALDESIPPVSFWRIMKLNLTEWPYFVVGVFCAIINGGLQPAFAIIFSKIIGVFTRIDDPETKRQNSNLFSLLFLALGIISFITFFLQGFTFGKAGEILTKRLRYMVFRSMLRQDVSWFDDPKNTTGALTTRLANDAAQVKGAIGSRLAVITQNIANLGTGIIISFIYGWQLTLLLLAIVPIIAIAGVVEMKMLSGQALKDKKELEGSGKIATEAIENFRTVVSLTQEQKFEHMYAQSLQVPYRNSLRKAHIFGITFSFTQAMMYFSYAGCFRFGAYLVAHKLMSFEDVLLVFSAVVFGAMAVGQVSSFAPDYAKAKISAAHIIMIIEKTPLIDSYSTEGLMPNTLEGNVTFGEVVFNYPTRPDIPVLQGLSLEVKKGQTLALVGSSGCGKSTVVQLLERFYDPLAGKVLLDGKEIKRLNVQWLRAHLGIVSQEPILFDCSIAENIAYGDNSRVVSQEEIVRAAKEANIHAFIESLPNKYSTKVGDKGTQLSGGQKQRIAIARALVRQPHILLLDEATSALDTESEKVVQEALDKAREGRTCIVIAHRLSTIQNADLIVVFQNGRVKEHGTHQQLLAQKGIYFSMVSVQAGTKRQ
# [2] = tested on: HCT-116; test: Antiproliferative activity against human HCT116 cells assessed as reduction in cell viability incubated for 48 hrs by MTT assay; format: functional, cell-based; details: HCT-116, 48 h
# [3] = tested on: COLO 205; test: Antiproliferative activity against human COLO205 cells assessed as reduction in cell viability incubated for 48 hrs by MTT assay; format: functional, cell-based; details: COLO 205, 48 h
# [4] = tested on: A2780; test: Antiproliferative activity against human A2780 cells assessed as reduction in cell viability by MTT assay; format: functional, cell-based
# [5] = tested on: A549; test: Antiproliferative activity against human A549 cells assessed as reduction in cell viability by MTT assay; format: functional, cell-based
# [6] = tested on: Bel-7402; test: Antiproliferative activity against human Bel7402 cells assessed as reduction in cell viability by MTT assay; format: functional, cell-based
# [7] = tested on: MCF7; test: Antiproliferative activity against human MCF7 cells assessed as reduction in cell viability by MTT assay; format: functional, cell-based
# [8] = tested on: KB 3-1; test: Antiproliferative activity against human KB3-1 cells assessed as reduction in cell viability after 96 hrs by methylene blue staining based spectrophotometric method; format: functional; details: KB 3-1, 96 h
# [9] = Antiproliferative activity against human KB-8-5-11 cells assessed as reduction in cell viability after 96 hrs by methylene blue staining based spectrophotometric method; format: functional
# [10] = tested on: A549; test: Antiproliferative activity against human A549 cells assessed as reduction in cell viability incubated for 24 hrs by SRB assay; format: functional, cell-based; details: A549, 24 h
# [11] = tested on: SK-OV-3; test: Antiproliferative activity against human SKOV3 cells assessed as reduction in cell viability incubated for 24 hrs by SRB assay; format: functional, cell-based; details: SK-OV-3, 24 h
# [12] = tested on: SK-MEL-2; test: Antiproliferative activity against human SK-MEL-2 cells assessed as reduction in cell viability incubated for 24 hrs by SRB assay; format: functional, cell-based; details: SK-MEL-2, 24 h
# [13] = tested on: HCT-15; test: Antiproliferative activity against human HCT15 cells assessed as reduction in cell viability incubated for 24 hrs by SRB assay; format: functional, cell-based; details: HCT-15, 24 h
# [14] = tested on: MCF7; test: Antiproliferative activity against human MCF7 cells assessed as reduction in cell viability incubated for 24 hrs by SRB assay; format: functional, cell-based; details: MCF7, 24 h
# [15] = tested on: DLD-1; test: Antiproliferative activity against human DLD1 cells assessed as reduction in cell viability; format: functional, cell-based
# [16] = tested on: LoVo; test: Antiproliferative activity against human LoVo cells assessed as reduction in cell viability; format: functional, cell-based
# [17] = tested on: MCF7; test: Antiproliferative activity against human MCF7 cells assessed as reduction in cell viability; format: functional, cell-based
# [18] = tested on: MDA-MB-231; test: Antiproliferative activity against human MDA-MB-231 cells assessed as reduction in cell viability; format: functional, cell-based
SMILES,IC50 [10] [nM],IC50 [13] [nM],IC50 [14] [nM],Activity [1] [%],IC50 [2] [nM],IC50 [3] [nM],also measured
CCOC(=O)C1CCN(c2ccc3c(cc2=O)[C@@H](NC(C)=O)CCc2cc(OC)c(OC)c(OC)c2-3)CC1,–,–,–,95.49,> 10000,8000,–
CNc1ccc2c(cc1=O)[C@@H](NC(=O)CCC(=O)OCCCCCCO[N+](=O)[O-])CCc1cc(OC)c(OC)c(OC)c1-2,–,–,–,–,–,–,IC50 [4]: 109 nM; IC50 [5]: 205 nM; IC50 [6]: 86 nM; IC50 [7]: 95 nM
COc1c(COC(C)=O)c2c(c(OC)c1OC)-c1ccc(OC)c(=O)cc1[C@@H](NC(C)=O)CC2,–,–,–,–,–,–,IC50 [8]: > 1000 nM; IC50 [9]: > 1000 nM
COc1cc2c(c(OC)c1OC)-c1ccc(Nc3ccc(Cl)c(C(F)(F)F)c3)c(=O)cc1[C@@H](NC(C)=O)CC2,–,–,–,90.29,40,30,–
COc1c(COC2CCCCO2)c2c(c(OC)c1OC)-c1ccc(OC)c(=O)cc1[C@@H](NC(C)=O)CC2 (stereo partly drawn),–,–,–,–,–,–,IC50 [8]: > 1000 nM; IC50 [9]: > 1000 nM
CNc1ccc2c(cc1=O)[C@@H](NC(=O)CCC(=O)OC/C=C/CO[N+](=O)[O-])CCc1cc(OC)c(OC)c(OC)c1-2,–,–,–,–,–,–,IC50 [4]: 205 nM; IC50 [5]: 135 nM; IC50 [6]: 120 nM; IC50 [7]: 202 nM
COc1cc2c(c(OC)c1OC)-c1ccc(N3CCC(N)CC3)c(=O)cc1[C@@H](NC(C)=O)CC2,–,–,–,102.04,10000,5000,–
CC/C=C\C/C=C\C/C=C\C/C=C\C/C=C\C/C=C\CCC(=O)N[C@H]1CCc2cc(OC)c(OC)c(OC)c2-c2ccc(SC)c(=O)cc21,917,392,494,–,–,–,IC50 [11]: 2630 nM; IC50 [12]: 2000 nM
COc1cc2c(c(OC)c1OC)-c1ccc(N3CCC4c5ccccc5NC4C3)c(=O)cc1[C@@H](NC(C)=O)CC2 (stereo partly drawn),–,–,–,119.7,3000,800,–
COc1cc2c(c(OC)c1OC)-c1ccc(SC)c(=O)cc1[C@@H](NC(=O)CC[C@H](NC(=O)c1ccc(NCc3cnc4nc(N)nc(O)c4n3)cc1)C(=O)O)CC2,4960,1160,697,–,–,–,–
COc1cc2c(c(OC)c1OC)-c1ccc(N3CCC[C@@H]3CO)c(=O)cc1[C@@H](NC(C)=O)CC2,–,–,–,86.53,10000,8000,–
COc1cc2c(c(OC)c1OC)-c1ccc(SC)c(=O)cc1[C@@H](NC(=O)CCC1=C(C)c3cc4[nH]c(cc5nc(cc6[nH]c(cc1n3)c(CCC(=O)N[C@H]1CCc3cc(OC)c(OC)c(OC)c3-c3ccc(SC)c(=O)cc31)c6C)C(C(C)O)=C5C)c(C(C)O)c4C)CC2 (stereo partly drawn),1680,4840,3220,–,–,–,IC50 [11]: 2860 nM; IC50 [12]: 2840 nM
COc1cc2c(c(OC)c1OC)-c1ccc(SC)c(=O)cc1[C@@H](NC(=O)Cc1ccccc1Nc1c(Cl)cccc1Cl)CC2,520,306,296,–,–,–,IC50 [11]: 1500 nM; IC50 [12]: 1050 nM
CCSc1ccc2c(cc1=O)[C@@H](NC(C)=O)CCc1cc(OC)c(OC)c(OC)c1-2,–,–,–,–,–,–,IC50 [15]: 51.2 nM; IC50 [16]: 19.5 nM; IC50 [17]: 56.1 nM; IC50 [18]: 148 nM
COc1cc2c(c(OC)c1OC)-c1ccc(=N)c(O)cc1[C@@H](NC(C)=O)CC2,–,–,–,107.41,150,120,–
COc1cc2c(c(OC)c1OC)-c1ccc(N3CCNCC3)c(=O)cc1[C@@H](NC(C)=O)CC2,–,–,–,95.52,> 10000,8000,–
COc1cc2c(c(OC)c1OC)-c1ccc(SC(C)C)c(=O)cc1[C@@H](NC(C)=O)CC2,–,–,–,–,–,–,IC50 [15]: 177 nM; IC50 [16]: 150 nM; IC50 [17]: 564 nM; IC50 [18]: 1100 nM
CCCSc1ccc2c(cc1=O)[C@@H](NC(C)=O)CCc1cc(OC)c(OC)c(OC)c1-2,–,–,–,–,–,–,IC50 [15]: 71.8 nM; IC50 [16]: 56.1 nM; IC50 [17]: 764 nM; IC50 [18]: 704 nM

# More lines, main results first:
IC50 [10] [nM],IC50 [13] [nM],IC50 [14] [nM],SMILES,Activity [1] [%],IC50 [2] [nM],IC50 [3] [nM],also measured
5.8,10.8,5.6,COc1cc(/C=C/C(=O)N[C@H]2CCc3cc(OC)c(OC)c(OC)c3-c3ccc(SC)c(=O)cc32)ccc1O,–,–,–,IC50 [11]: 24.8 nM; IC50 [12]: 16.6 nM
14.2,18.7,7.8,COc1cc2c(c(OC)c1OC)-c1ccc(SC)c(=O)cc1[C@@H](NC(=O)[C@H](O)[C@@H](O)[C@H](O)[C@H](O)CO)CC2,–,–,–,IC50 [11]: 29.8 nM; IC50 [12]: 12.3 nM
